Data from PubChem BioAssay AID1963433 (Molecular Pharmacology Branch, DTP, NCI, 2024).

System: 772245-204-R-J1-PDC complex spheroid growth
Test: Anticancer human tumor 772245-204-R-J1-PDC patient-derived rhabdomyosarcoma cell line growth inhibition [Asc]
Settings: for IC50: curve of first compound; for viability, T/C: stronger effect = lower value
Procedure, shortened: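 Complex spheroids combining tumor cells with HUVEC endothelial cells and human MSCs, at 37 degrees C, 5% CO2; agents tested alone or combined, half-log dilutions from at or near clinical Cmax, or 10 microM if Cmax unknown.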

[1] = second compound 0.1 µM, first compound 0.00316 µM
[2] = second compound 0.1 µM, first compound 0.01 µM
[3] = second compound 0.1 µM, first compound 0.0316 µM
[4] = second compound 0.1 µM, first compound 0.1 µM
[5] = second compound 0.316 µM, first compound 0.00316 µM
[6] = second compound 0.316 µM, first compound 0.01 µM
[7] = second compound 0.316 µM, first compound 0.0316 µM
[8] = second compound 0.316 µM, first compound 0.1 µM
[9] = second compound 1 µM, first compound 0.00316 µM
[10] = second compound 1 µM, first compound 0.01 µM
[11] = second compound 1 µM, first compound 0.0316 µM
[12] = second compound 1 µM, first compound 0.1 µM
[13] = second compound 3.16 µM, first compound 0.00316 µM
[14] = second compound 3.16 µM, first compound 0.01 µM
[15] = second compound 3.16 µM, first compound 0.0316 µM
[16] = second compound 3.16 µM, first compound 0.1 µM
[17] = second compound 10 µM, first compound 0.00316 µM
[18] = second compound 10 µM, first compound 0.01 µM
[19] = second compound 10 µM, first compound 0.0316 µM
[20] = second compound 10 µM, first compound 0.1 µM
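Further: compound exposure lasted seven days.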
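Wherever viability, T/C is given: 100% = DMSO vehicle control viability.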

## COc1c(OCCCN2CCOCC2)ccc2c3n(c(=NC(=O)c4cnc(N)nc4)nc12)CCN3 + Cc1c(S(C)(=O)=O)c(-c2cc(F)cc(N3CCN(c4ccc(NS(=O)(=O)c5ccc(NC(CCN6CCC(C(=O)OCCCP(=O)(O)O)CC6)CSc6ccccc6)c(S(=O)(=O)C(F)(F)F)c5)cc4)CC3)c2)c(-c2ccc(Cl)cc2)n1C(C)C
Second compound 0.1 µM
  IC50: 57.5 nM
Second compound 0.316 µM
  IC50: 48.5 nM
Second compound 1 µM
  IC50: 21.2 nM
Second compound 3.16 µM
  IC50: < 3.16 nM
Second compound 10 µM
  IC50: < 3.16 nM
[1]
  viability, T/C: 82.5%
[2]
  viability, T/C: 73.1%
[3]
  viability, T/C: 55.7%
[4]
  viability, T/C: 45.2%
Second compound 0.1 µM, first compound 0.316 µM
  viability, T/C: 27.1%
Second compound 0.1 µM, first compound 1 µM
  viability, T/C: 18.8%
[5]
  viability, T/C: 64.2%
[6]
  viability, T/C: 74.5%
[7]
  viability, T/C: 55.4%
[8]
  viability, T/C: 36.8%
Second compound 0.316 µM, first compound 0.316 µM
  viability, T/C: 18.4%
Second compound 0.316 µM, first compound 1 µM
  viability, T/C: 11.6%
[9]
  viability, T/C: 65.4%
[10]
  viability, T/C: 59.9%
[11]
  viability, T/C: 44.8%
[12]
  viability, T/C: 24.9%
Second compound 1 µM, first compound 0.316 µM
  viability, T/C: 12.7%
Second compound 1 µM, first compound 1 µM
  viability, T/C: 6.44%
[13]
  viability, T/C: 43.6%
[14]
  viability, T/C: 56.1%
[15]
  viability, T/C: 29.4%
[16]
  viability, T/C: 19.3%
Second compound 3.16 µM, first compound 0.316 µM
  viability, T/C: 11.5%
Second compound 3.16 µM, first compound 1 µM
  viability, T/C: 3.48%
[17]
  viability, T/C: 49.3%
[18]
  viability, T/C: 41.9%
[19]
  viability, T/C: 39.1%
[20]
  viability, T/C: 18.2%
Second compound 10 µM, first compound 0.316 µM
  viability, T/C: 6.81%
Second compound 10 µM, first compound 1 µM
  viability, T/C: 3.06%

## NC(=O)C(=Cn1cnc(-c2cc(C(F)(F)F)cc(C(F)(F)F)c2)n1)c1cncnc1 + Cc1c(S(C)(=O)=O)c(-c2cc(F)cc(N3CCN(c4ccc(NS(=O)(=O)c5ccc(NC(CCN6CCC(C(=O)OCCCP(=O)(O)O)CC6)CSc6ccccc6)c(S(=O)(=O)C(F)(F)F)c5)cc4)CC3)c2)c(-c2ccc(Cl)cc2)n1C(C)C
Second compound 0.1 µM
  IC50: 22 nM
Second compound 0.316 µM
  IC50: 6.58 nM
Second compound 1 µM
  IC50: < 0.949 nM
Second compound 3.16 µM
  IC50: < 0.949 nM
Second compound 10 µM
  IC50: < 0.949 nM
Second compound 0.1 µM, first compound 0.000949 µM
  viability, T/C: 80.2%
Second compound 0.1 µM, first compound 0.003 µM
  viability, T/C: 72.2%
Second compound 0.1 µM, first compound 0.00949 µM
  viability, T/C: 64%
Second compound 0.1 µM, first compound 0.03 µM
  viability, T/C: 43.2%
Second compound 0.1 µM, first compound 0.0949 µM
  viability, T/C: 29.6%
Second compound 0.1 µM, first compound 0.3 µM
  viability, T/C: 12.6%
Second compound 0.316 µM, first compound 0.000949 µM
  viability, T/C: 58.1%
Second compound 0.316 µM, first compound 0.003 µM
  viability, T/C: 64%
Second compound 0.316 µM, first compound 0.00949 µM
  viability, T/C: 42.1%
Second compound 0.316 µM, first compound 0.03 µM
  viability, T/C: 29.2%
Second compound 0.316 µM, first compound 0.0949 µM
  viability, T/C: 10.3%
Second compound 0.316 µM, first compound 0.3 µM
  viability, T/C: 3.73%
Second compound 1 µM, first compound 0.000949 µM
  viability, T/C: 41.2%
Second compound 1 µM, first compound 0.003 µM
  viability, T/C: 34.8%
Second compound 1 µM, first compound 0.00949 µM
  viability, T/C: 24%
Second compound 1 µM, first compound 0.03 µM
  viability, T/C: 8.43%
Second compound 1 µM, first compound 0.0949 µM
  viability, T/C: 4.25%
Second compound 1 µM, first compound 0.3 µM
  viability, T/C: 1.91%
Second compound 3.16 µM, first compound 0.000949 µM
  viability, T/C: 42.5%
Second compound 3.16 µM, first compound 0.003 µM
  viability, T/C: 27.8%
Second compound 3.16 µM, first compound 0.00949 µM
  viability, T/C: 23.9%
Second compound 3.16 µM, first compound 0.03 µM
  viability, T/C: 2.44%
Second compound 3.16 µM, first compound 0.0949 µM
  viability, T/C: 0.58%
Second compound 3.16 µM, first compound 0.3 µM
  viability, T/C: 0.81%
Second compound 10 µM, first compound 0.000949 µM
  viability, T/C: 32.9%
Second compound 10 µM, first compound 0.003 µM
  viability, T/C: 39.9%
Second compound 10 µM, first compound 0.00949 µM
  viability, T/C: 22.2%
Second compound 10 µM, first compound 0.03 µM
  viability, T/C: 5.99%
Second compound 10 µM, first compound 0.0949 µM
  viability, T/C: 0.9%
Second compound 10 µM, first compound 0.3 µM
  viability, T/C: 0.59%

## NC1CCC(NC2CC2c2ccccc2)CC1 (stereo not given) + Cc1c(S(C)(=O)=O)c(-c2cc(F)cc(N3CCN(c4ccc(NS(=O)(=O)c5ccc(NC(CCN6CCC(C(=O)OCCCP(=O)(O)O)CC6)CSc6ccccc6)c(S(=O)(=O)C(F)(F)F)c5)cc4)CC3)c2)c(-c2ccc(Cl)cc2)n1C(C)C
Second compound 0.1 µM
  IC50: > 100 nM
Second compound 0.316 µM
  IC50: < 0.316 nM
Second compound 1 µM
  IC50: < 0.316 nM
Second compound 3.16 µM
  IC50: < 0.316 nM
Second compound 10 µM
  IC50: < 0.316 nM
Second compound 0.1 µM, first compound 0.000316 µM
  viability, T/C: 69.1%
Second compound 0.1 µM, first compound 0.001 µM
  viability, T/C: 67.9%
[1]
  viability, T/C: 66%
[2]
  viability, T/C: 59.6%
[3]
  viability, T/C: 66.6%
[4]
  viability, T/C: 61.2%
Second compound 0.316 µM, first compound 0.000316 µM
  viability, T/C: 42.7%
Second compound 0.316 µM, first compound 0.001 µM
  viability, T/C: 48.9%
[5]
  viability, T/C: 41.6%
[6]
  viability, T/C: 38.2%
[7]
  viability, T/C: 38.1%
[8]
  viability, T/C: 45.2%
Second compound 1 µM, first compound 0.000316 µM
  viability, T/C: 34.1%
Second compound 1 µM, first compound 0.001 µM
  viability, T/C: 24.2%
[9]
  viability, T/C: 22.6%
[10]
  viability, T/C: 24.2%
[11]
  viability, T/C: 26.3%
[12]
  viability, T/C: 24.8%
Second compound 3.16 µM, first compound 0.000316 µM
  viability, T/C: 24.2%
Second compound 3.16 µM, first compound 0.001 µM
  viability, T/C: 18.1%
[13]
  viability, T/C: 17.8%
[14]
  viability, T/C: 18.7%
[15]
  viability, T/C: 13.7%
[16]
  viability, T/C: 13.2%
Second compound 10 µM, first compound 0.000316 µM
  viability, T/C: 20.4%
Second compound 10 µM, first compound 0.001 µM
  viability, T/C: 18.1%
[17]
  viability, T/C: 15.8%
[18]
  viability, T/C: 18.4%
[19]
  viability, T/C: 16.8%
[20]
  viability, T/C: 13.2%
